Experimental data published in patent US12103924B2, “Mitogen-activated protein kinase kinase (MEK) degradation compounds and methods of use” (Icahn School of Medicine at Mount Sinai, priority 2020, dated 2024).

Columns and labels:
[1] = molecular target: T1, MEK1 (Homo sapiens, UniProt Q02750); experiment: HotSpot kinase inhibition assay, MEK1; type: biochemical; conditions: MEK1 100 nM, ERK K52R substrate, 33P-ATP, normalized with DMSO
T1 construct: purchased Thermo Fisher Scientific PV3303

[2] = molecular target: T2, MEK2 (Homo sapiens, UniProt P36507); experiment: HotSpot kinase inhibition assay, MEK2; type: biochemical; conditions: MEK2 150 nM, ERK K52R substrate, 33P-ATP, normalized with DMSO
T2 construct: purchased Thermo Fisher Scientific PV3615
T2 sequence (P36507 whole entry): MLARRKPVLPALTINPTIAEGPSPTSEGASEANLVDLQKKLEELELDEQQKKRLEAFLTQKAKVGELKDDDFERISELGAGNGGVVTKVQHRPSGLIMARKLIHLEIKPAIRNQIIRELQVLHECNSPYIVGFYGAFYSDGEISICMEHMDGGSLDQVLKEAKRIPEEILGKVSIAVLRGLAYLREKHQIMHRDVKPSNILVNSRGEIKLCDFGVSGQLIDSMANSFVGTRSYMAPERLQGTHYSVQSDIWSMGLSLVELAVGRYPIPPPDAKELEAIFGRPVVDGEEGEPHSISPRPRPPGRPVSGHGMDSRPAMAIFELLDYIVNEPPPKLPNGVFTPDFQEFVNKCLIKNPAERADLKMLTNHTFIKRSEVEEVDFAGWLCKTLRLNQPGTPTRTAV

[3] = system: MEK1/2; experiment: Western blot of MEK1/2 protein levels in HT-29 cells; type: cell-based; conditions: for MEK1 and MEK2 protein levels, time-dependent: 0.1 μM or 0.3 μM, harvested at indicated time points
Protocol: Compound concentrations are 0.3 μM, 1 μM and 3 μM.
(§3) The indicated protein levels were determined by Western blots.
(§4) The sample was centrifuged at 12,000 g for 10 min at 4° C. to get supernatant as cell lysate. Protein concentrations were quantified using Pierce rapid gold BCA protein assay kit.

[4] = system: MEK1 and MEK2 proteins; experiment: Global proteome analysis of HT-29 cells; type: cell-based, human
Protocol: […] […] P values were calculated from the data of two technical replicates. (A) DMSO compared to CPD-031 treated samples; (B) CPD-034 compared to CPD-031 treated samples; (C) DMSO compared to CPD-034 treated samples.
Proteins outside the significance lines were labeled with pink or purple color (FDR=0.05, S0=1). P values were calculated from the data of two technical replicates.
Protein Extraction and Digestion. Cells with indicated treatments were harvested and lysed in lysis buffer (6 M guanidine hydrochloride, 100 mM Tris-HCl pH 8.0). Sonication (5 s on, 5 s off, 2×30 s) was performed to shear genome DNA. Lysate were centrifugated for 30 min at 3,500 g at 4° C. and the supernatant were transferred to a clean tube, diluted 50% with Milli-Q H2O, then precipitated by addition of cold acetone (four times the original volume), and placed at −20° C. overnight. Precipitated proteins were brought down at 20,000 g at 4° C. for 10 min, and washed with cold acetone after discarding the supernatant. The pellet was air-dried at RT for 5 min and solubilized with 50 mM Tris-HCl (PH 8.0), 8 M urea. Protein concentration was determined (BCA assay) and protein was reduced with 5 mM DTT (dithiothreitol), alkylated with 15 mM IAA (iodoacetamide) in the dark, then diluted with buffer 25 mM Tris (pH 8.0) and 1 mM CaCl2 (three times the original volume). The final urea concentration is 2 M. Trypsin was added into protein solution with 1:100 ratio (trypsin:protein), and digested 12-16 h or overnight at RT.
Mass Spectrometry Analysis. Peptides were cleaned up by C18 stage tips and the concentration was determined (Peptide assay, 23275, Thermo Fisher Scientific). The clean peptides were dissolved in 0.1% formic acid and analyzed on a Q-Exactive HF-X coupled with an Easy nanoLC 1200 (Thermo Fisher Scientific, San Jose, CA). 0.5 μg of peptides were loaded onto an Acclain PepMap RSLC C18 Column (250 mm×75 μm ID, C18, 2 μm, Thermo Fisher Scientific). […] A linear gradient of 5 to 30% buffer B over 110 min was executed at a 300 nl/min flow rate followed a ramp to 100% B in 5 min, and 15-min wash with 100% B, where buffer A was aqueous 0.1% formic acid, and buffer B was 80% acetonitrile and 0.1% formic acid.
LC-MS experiments were performed in a data-dependent mode with full MS (externally calibrated to a mass accuracy of <5 ppm and a resolution of 60,000 at m/z 200) followed by high energy collision-activated dissociation-MS/MS of the top 20 most intense ions with a resolution of 15,000 at m/z 200. High energy collision-activated dissociation-MS/MS was used to dissociate peptides at a normalized collision energy of 27 eV in the presence of nitrogen bath gas atoms. Dynamic exclusion was 30.0 seconds. Each sample was subjected to two technical LC-MS replicates.
MS Data Analysis. Mass spectra processing and peptide identification were performed on the Andromeda search engine in MaxQuant software (Version 1.6.0.16) against the human UniProt database (UP000005640). All searches were conducted with a defined modification of cysteine carbamidomethylation, with methionine oxidation and protein amino-terminal acetylation as dynamic modifications. Peptides were confidently identified using a target-decoy approach with a peptide false discovery rate (FDR) of 1% and a protein FDR of 1%. A minimum peptide length of 7 amino acids was required, maximally two missed cleavages were allowed, initial mass deviation for precursor ion was up to 7 ppm, and the maximum allowed mass deviation for fragment ions was 0.5 Da. Data processing and statistical analysis were performed on Perseus (Version 1.6.0.7). Protein quantitation was performed on duplicate runs, and a two-sample t-test statistics was used to report statistically significant expression fold-changes.

[5] = system: HT-29 cells; experiment: WST-8 cell viability assay, HT-29; type: cell-based
Protocol: (§1) Cells were fixed and stained by crystal violet.
(§2) Cells (2000 cells per well) were seeded into 96-well microplates. After 20 h, cells were treated with 0.1% DMSO or indicated serial dilutions of compounds in duplicate or triplicate for 3 days. Cell viability was tested using MTT (M6494, Thermo Fisher Scientific) or WST-8 reagent (CK04, Dojindo). Briefly, 12 mM MTT was prepared in PBS or WST-8 reagent was warmed up to room temperature. 20 μL MTT or CCK-8 was then added to each well and the plates were kept in incubator at 37° C. for 3 h in the dark. For the WST-8 assay, signal was obtained after the incubation. For the MTT assay, cell medium was replaced with 200 μL of DMSO after the incubation, and then cell plates were kept at 37° C. for another 30 min. Absorbance signals for MTT and WST-8 were read at 540 nm and 450 nm respectively, with 690 nm as reference performed with Infinite F PLEX plate reader (TECAN, Morrisville, NC, USA). GI50 values were analyzed using GraphPad Prism 8 from the data of at least three independent experiments.

[6] = system: SK-MEL-28 cells; experiment: WST-8 cell viability assay, SK-MEL-28; type: cell-based
Protocol: as §1, §2

[7] = system: H3122 cells; experiment: WST-8 cell viability assay, H3122; type: cell-based; conditions: WST-8, 3 d
Protocol: as §2

[8] = system: SUDHL1 cells; experiment: WST-8 cell viability assay, SUDHL1; type: cell-based; conditions: WST-8, 3 d
Protocol: as §2

[9] = system: pMEK and pERK; experiment: Western blot of MEK and ERK phosphorylation in HT-29 cells; type: cell-based; conditions: HT-29 cells; for phosphorylation of MEK and ERK / pERK signaling, time-dependent: 0.1 μM or 0.3 μM, harvested at indicated time points
[10] = system: MEK1/2; experiment: Western blot of MEK1/2 protein levels in SK-MEL-28 cells; conditions: SK-MEL-28 cells; for MEK1 and MEK2 protein levels, time-dependent: 0.1 μM or 0.3 μM, harvested at indicated time points
Protocol: as §3, §4

[11] = system: pMEK and pERK; experiment: Western blot of MEK and ERK phosphorylation in SK-MEL-28 cells; conditions: SK-MEL-28 cells; for phosphorylation of MEK and ERK / pERK signaling, time-dependent: 0.1 μM or 0.3 μM, harvested at indicated time points
[12] = serial dilution, 24 h, western blot

T1 sequence (Q02750 whole entry): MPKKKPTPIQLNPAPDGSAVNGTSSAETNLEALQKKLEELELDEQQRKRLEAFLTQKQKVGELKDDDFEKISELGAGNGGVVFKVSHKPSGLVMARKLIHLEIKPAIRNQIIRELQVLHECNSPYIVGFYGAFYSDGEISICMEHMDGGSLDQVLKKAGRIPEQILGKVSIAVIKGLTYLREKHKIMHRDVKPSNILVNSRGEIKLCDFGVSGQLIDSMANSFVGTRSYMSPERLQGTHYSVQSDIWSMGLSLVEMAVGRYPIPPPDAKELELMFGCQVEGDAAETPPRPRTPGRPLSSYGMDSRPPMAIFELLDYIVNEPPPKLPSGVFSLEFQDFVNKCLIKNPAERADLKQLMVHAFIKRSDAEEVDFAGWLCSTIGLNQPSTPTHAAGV

Structure (SMILES): Cc1ncsc1-c1ccc([C@H](C)NC(=O)C2CC(O)CN2C(=O)[C@@H](NC(=O)CCCCCCCCCCNCCCONC(=O)c2ccc(F)c(F)c2Nc2ccc(I)cc2F)C(C)(C)C)cc1 (stereo in doubt) [CPD-034, (2R,4S)-1-((S)-20-(tert-butyl)-1-(3,4-difluoro-2-((2-fluoro-4-iodophenyl)amino)phenyl)-1,18-dioxo-3-oxa-2,7,19-triazahenicosan-21-oyl)-4-hydroxy-N—((S)-1-(4-(4-methylthiazol-5-yl)phenyl)ethyl)pyrrolidine-2-carboxamide]
- MEK1 kinase activity [1]: inhibited
- MEK2 kinase activity [2]: inhibited
- MEK1 and MEK2 protein levels ([3]; HT-29 cells, 0.1, 0.3, or 1 μM, 24 h): not
- protein levels in the global proteomic study ([4]; 10 h, 0.1 μM, versus 0.1% DMSO): did not significantly modulate

Structure (SMILES): Cc1ncsc1-c1ccc([C@H](C)NC(=O)[C@@H]2C[C@@H](O)CN2C(=O)[C@@H](NC(=O)CCCCCCCCCCN(C)CCCONC(=O)c2ccc(F)c(F)c2Nc2ccc(I)cc2F)C(C)(C)C)cc1 [CPD-037, (2S,4R)-1-((S)-20-(tert-butyl)-1-(3,4-difluoro-2-((2-fluoro-4-iodophenyl)amino)phenyl)-7-methyl-1,18-dioxo-3-oxa-2,7,19-triazahenicosan-21-oyl)-4-hydroxy-N—((S)-1-(4-(4-methylthiazol-5-yl)phenyl)ethyl)pyrrolidine-2-carboxamide]
- growth of cells ([5]; WST-8 3 d serial dilutions, clonogenic assay 10 d): significantly suppressed
- growth inhibition compared with AZ compound ([5]; WST-8, 3 d): more potent
- growth of cells ([6]; WST-8 3 d serial dilutions): significantly suppressed
- growth inhibition compared with AZ compound ([6]; WST-8, 3 d): more potent
- growth inhibition compared with AZ compound [7]: more potent
- growth inhibition compared with AZ compound [8]: more potent
- MEK1 and MEK2 protein levels, time-dependent ([3]; HT-29 cells): degrade
- MEK1 and MEK2 protein levels, concentration-dependent ([3]; HT-29 cells, serial dilution, 24 h, western blot): degrade
- phosphorylation of MEK and ERK / pERK signaling, time-dependent [9]: inhibit
- phosphorylation of MEK and ERK proteins, concentration-dependent [9, 12]: inhibit
- MEK1 and MEK2 protein levels, time-dependent [10]: degrade
- MEK1 and MEK2 protein levels, concentration-dependent [10, 12]: degrade
- phosphorylation of MEK and ERK / pERK signaling, time-dependent [11]: inhibit
- phosphorylation of MEK and ERK proteins, concentration-dependent [11, 12]: inhibit

Structure (SMILES): Cc1ncsc1-c1ccc([C@H](C)NC(=O)[C@@H]2C[C@@H](O)CN2C(=O)[C@@H](NC(=O)CCCCCCCCCCCNCCCCONC(=O)c2ccc(F)c(F)c2Nc2ccc(I)cc2F)C(C)(C)C)cc1 [CPD-038, (2S,4R)-1-((S)-22-(tert-butyl)-1-(3,4-difluoro-2-((2-fluoro-4-iodophenyl)amino)phenyl)-1,20-dioxo-3-oxa-2,8,21-triazatricosan-23-oyl)-4-hydroxy-N—((S)-1-(4-(4-methylthiazol-5-yl)phenyl)ethyl)pyrrolidine-2-carboxamide]
- growth inhibition compared with AZ compound [7]: more potent
- growth inhibition compared with AZ compound [8]: more potent
- MEK1 and MEK2 protein levels, time-dependent ([3]; HT-29 cells): degrade
- phosphorylation of MEK and ERK / pERK signaling, time-dependent [9]: inhibit
- protein levels in the global proteomic study ([4]; 8 h, 0.1 μM CPD-038 or CPD-052, 0.3 μM CPD-051 or CPD-097, versus 0.1% DMSO): selectively degraded
- MEK1 and MEK2 protein levels, time-dependent [10]: degrade
- phosphorylation of MEK and ERK / pERK signaling, time-dependent [11]: inhibit
